# Values quoted from earlier work in patent publication US10273546B2, “Method and composition for diagnosis or treatment of aggressive prostate cancer” (The Trustees of Columbia University in the City of New York, priority 2014, dated 2019).
# Assays:
# Apo-B = conditions: animal models
# [1] = human, in vivo
substance,measurement,setting,value
Mipomersen,repression of target apo-B expression,Apo-B,robust and prolonged repression
same,toxic effects,[1],relatively mild
